# Measured values published in patent publication US20240350669A1, “INHIBITION OF KYNURENINE SYNTHESIS AND/OR SIGNALING TO TREAT LEUKEMIA AND MYELODYSPLASIA” (THE TRUSTEES OF COLUMBIA UNIVERSITY IN THE CITY OF NEW YORK, priority 2022, published 2024).
# B1: parathyroid hormone (peptide, UniProt P01270 32-115, looked up)
# Parathyroid hormone: SVSEIQLMHNLGKHLNSMERVEWLRKKLQDVHNFVALGAPLAPRDAGSQRPRKKEDNVLVESHEKSLGEADKADVNVLTKAKSQ
# modifications: Parathyroid hormone
# notes: intermittent parathyroid hormone (Bachem), increases osteoblast numbers
# Assays:
# mouse HTR1B = molecular target: T1, mouse HTR1B (Mus musculus, UniProt P28334); assay: [3H]-5-HT competition binding, membranes of HEK293T cells overexpressing murine HTR1B; conditions: competition of 25 nM [3H]-5-HT; for Log IC50: log value
# T1 construct: The full-length murine or human serotonin receptor 1b (Htr1b); Myc-DDK; host or cells: HEK293T (transient, Lipofectamine LTX); isolated membranes
# T1 sequence (P28334 whole entry): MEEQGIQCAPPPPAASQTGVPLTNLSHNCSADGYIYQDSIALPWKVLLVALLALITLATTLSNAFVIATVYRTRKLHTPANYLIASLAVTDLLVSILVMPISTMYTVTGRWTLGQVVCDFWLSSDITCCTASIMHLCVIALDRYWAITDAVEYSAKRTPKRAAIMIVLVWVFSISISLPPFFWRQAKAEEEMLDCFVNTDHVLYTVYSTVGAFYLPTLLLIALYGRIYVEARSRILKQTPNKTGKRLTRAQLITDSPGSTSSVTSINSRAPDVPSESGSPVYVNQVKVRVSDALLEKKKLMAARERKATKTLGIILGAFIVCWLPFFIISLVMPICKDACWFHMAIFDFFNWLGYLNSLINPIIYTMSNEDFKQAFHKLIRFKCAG
# Description: (§1) Radioactivity captured on the filters was counted using a SL300 scintillation counter (Hidex). […] Log EC50 were determined by Non-linear regression curve analysis.
# HTR1B = assay: Saa3 mRNA in primary mouse calvaria osteoblasts from Htr1b+/+ or Htr1b-/- mice; type: cell-based; conditions: 25 nM, 24 h; for Saa3 expression in mouse osteoblasts: Htr1b+/+ osteoblasts
# Description: Primary calvaria-derived osteoblasts were prepared from calvaria of 2-3 day-old newborns as previously described (Rached M-T, et al. FoxO1 Is a Positive Regulator of Bone Formation by Favoring Protein Synthesis and Resistance to Oxidative Stress in Osteoblasts. Cell Metabolism. Elsevier Ltd; 2010; 11:147-60.). Briefly, mice calvaria were sequentially digested for 20, 40, and 90 min at 37° C. in alpha-MEM (Gibco) 10% FBS containing 0.1 mg/ml of collagenase P (Worthington) and 0.25% trypsin (Gibco). Cells of the first two digests were discarded, whereas cells released from the third digestion were plated and differentiated for 7-10 days as previously described.
# (§2) RNA isolation, cDNA preparation and real-time PCR analyses were carried out following standard protocols. Total RNA from cortical bone (clean, flushed femurs, were centrifugated 20 seconds at 10.000 g's to remove any remaining BM) was extracted using TRIzol (Invitrogen) followed by RNA clean-up using PureLink RNA Mini Kit (Ambion, Invitrogen). mRNA was reversed transcribed using random hexamers RNA-to-cDNA kit (Takara). Specific forward and reverse primers were used in conjunction with PowerUp SYBR Green Master Mix (Applied Biosystems) for quantitative PCR. Expression levels were analyzed using the 2^−ΔΔCt method and were normalized for the expression of the housekeeping gene Hprt unless otherwise stated.
# [1] = system: patient-derived AML cells; assay: Patient-derived AML xenograft in NSG mice, epacadostat chow and/or Ara-C; type: in vivo, mouse; conditions: day 22 after initiating therapy; Ara-C 60 mg/kg/day x 5 days, epacadostat chow 1.6 g/kg 3 weeks
# Description: (§3) Epacadostat (AdooQ Cat #A15554)-treatment: for the WT C57BL/6J mice, treatment started at the same time than MLL/AF9 cells were transplanted. For the patient-derived AML cells (PDX) transplanted into NSG mice, treatment started 8 weeks after transplant, at the same time than Ara-C and during 3 weeks. Mice were supplied with ad libitum epacadostat-supplemented diet (Research Diets Inc.) at 800 mg/kg (low-dose) or 1.6 g/kg (high-dose). For the PDX transplanted into NSGS mice, treatment started 3 weeks after transplant, by daily gavage at 300 mg/kg (InvivoChem Cat #: V0942, dissolved in 10% DMSO, 40% PEG 300 and 50% NaCl 0.9%) for 2 weeks.
# For the combination therapy (Epacadostat+chemotherapy) performed at the University of Pennsylvania, patient-derived AML cells were transplanted as previously reported (48). Briefly 6 weeks old NSG males were sublethally treated with busulfan (30 mg/kg) 24 h before transplant and 5×10^6 patient-derived AML cells were injected i.v. Engraftment was assessed, and mice were randomized at 7.5 weeks by BM aspirate as previously described. Randomized mice were treated with vehicle, cytosine arabinoside (Ara-C, 60 mg/kg/day×5 days i.p.), epacadostat chow (1.6 g/kg ad libitum) or both Ara-C and epacadostat chow for 3 weeks.
# 5-HT1B receptor = molecular target: T2, 5-HT1B receptor (Homo sapiens, UniProt P28222); assay: GloSensor Gi/o-mediated cAMP inhibition assay in HEK293T cells; type: cell-based
# T2 construct: expressed in transfected cells; host or cells: HEK293T (transient co-transfection with GloSensor cAMP plasmid)
# T2 sequence (P28222 whole entry): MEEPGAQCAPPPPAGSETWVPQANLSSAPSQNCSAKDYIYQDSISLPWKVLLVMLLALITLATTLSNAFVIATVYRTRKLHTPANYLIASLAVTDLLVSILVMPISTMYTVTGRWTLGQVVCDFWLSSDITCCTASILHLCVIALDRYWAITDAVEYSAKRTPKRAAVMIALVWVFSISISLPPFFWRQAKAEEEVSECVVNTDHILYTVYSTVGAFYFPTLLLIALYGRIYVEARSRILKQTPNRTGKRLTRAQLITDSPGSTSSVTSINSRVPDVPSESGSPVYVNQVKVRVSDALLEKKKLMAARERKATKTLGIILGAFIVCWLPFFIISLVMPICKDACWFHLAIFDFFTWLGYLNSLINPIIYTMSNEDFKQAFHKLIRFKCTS
# [2] = system: leukemic blasts (hCD45+hCD33+); assay: Kyn injection in low AML burden PDX mice; type: in vivo, mouse; conditions: Kyn 20 mg/kg, 1 week
# Description: 4-6 weeks old NSG (CDX model) or NSGS (PDX model) mice were pre-conditioned with sublethal (1.4 Gy) total-body irradiation. 24 h after, 1×10^6 OCI-AML3 or 2×10^5 human BM CD34^+ (healthy) or primary AML patient samples were injected i.v. Engraftment levels were monitored and mice were randomized after BM aspiration 3-4 weeks later and immunophenotyped by the presence of mCD45 (BioLegend Cat #103133, RRID: AB_10899570), hCD45 (BioLegend Cat #368512, RRID: AB_2566372), hCD33 (BioLegend Cat #303404, RRID: AB_314348), hCD34 (BioLegend Cat #343518, RRID: AB_1937203) cell populations. For the low-burden PDX model (kynurenine injections), mice were treated 1 week after transplant.
# Quantification in serum from peripheral blood (mice) or BM plasma (patients) of Kyn and Trp was assessed by ELISA using independent kits (ImmunoSmol) as per manufacturer's instructions. The ratio between Kyn and Trp levels is shown. SAA3 in serum (murine SAA3 ELISA Kit Millipore) and SAA1 in patient BM plasma (Amyloid A1 DuoSet ELISA Kit (R&D) were assessed as per manufacturer's instructions.
# Cell labelling was done by i.p. injection of mice with 50 mg/kg of freshly prepared 5-Ethynyl-2′-deoxyuridine-Edu-(Cayman Chemical Company Cat #20518). After 3-4 h, BM was harvested, and human cells were negatively selected by mouse cell depletion using mouse CD45 magnetic beads (Miltenyi). The human BM cells were then stained CD45 and CD33 to identify the leukemic blast. Cell cycle/proliferation analysis was performed using the Click-iT Plus EdU Flow Cytometry Assay Kit (Invitrogen, Cat #C10420) following manufacturers' instructions. Fixable viability dye (Biolegend) was used to discriminate the death population. Single color controls were used to set compensations and fluorescence minus one control were used to set gates. Analysis was performed with FlowJo software.
# human HTR1B [3] = molecular target: T3, human HTR1B (Homo sapiens, UniProt P28222); assay: [3H]-GR125743 competitive radioligand binding, HTR1B membranes from HEK293T stable transfectants; conditions: [3H]-GR125743, human HTR1B
# T3 sequence (P28222 whole entry): as above
# Description: [^3H]-GR125743 (PerkinElmer) radioligand binding assays were performed in standard binding buffer (50 mM Tris, 10 mM MgCl2, 0.1 mM EDTA, 0.1% BSA, 0.01% ascorbic acid, pH 7.4). Competitive binding was assessed with various concentrations of test compounds (0.3 nM to 100 μM), [^3H]-GR125743 (1.38 nM), and HTR1B membranes (isolated from HEK293T stable transfectants) in a total volume of 150 μL. Assay plates were incubated in the dark for 1 h at RT and reactions were stopped by filtration onto 0.3% polyethyleneimine pre-soaked 96-well Filtermat A (PerkinElmer), followed with three quick washes with cold wash buffer (50 mM Tris, pH 7.4). Filters were dried and melted with scintillation cocktail (Meltilex, PerkinElmer). Radioactivity was counted using a Wallac TriLux Microbeta counter (PerkinElmer).
# human HTR1B [4] = molecular target: T3, human HTR1B; conditions: competition of 25 nM [3H]-5-HT
# Description: The full-length murine or human serotonin receptor 1b (Htr1b) (pCMV6-Entry vector, Myc-DDK-tagged, Origene, Cat #MR222524 and RC223874 respectively) were transiently transfected into HEK293T cells using Lipofectamine LTX (Invitrogen). Transfection efficiency was assessed 24 h post-transfection by flow cytometry using the anti-Flag antibody (Sigma-Aldrich Cat #F3165, RRID: AB_259529). […] Reactions were stopped by the addition of ice-cold PBS, filtered through 0.7 μm glass fiber filters (Data Support Company). Filters were dried and melted with scintillation cocktail. Radioactivity captured on the filters was counted using a SL300 scintillation counter (Hidex). […] Log EC50 were determined by Non-linear regression curve analysis.
# MLL/AF9 AML cells = assay: MLL/AF9 syngeneic leukemia model in non-irradiated WT mice; type: in vivo, mouse
# Description: PTH bone-anabolic treatment: mice were injected intraperitoneally (i.p.) with PTH (Bachem) at 80 μg/kg/day in PBS. Injections started 1 week before MLL/AF9 injection and continued along 2-3 more weeks until mice were harvest.
# SB224289-SB9-(TOCRIS Cat #1221) treatment: mice were injected intraperitoneally (i.p.) daily with SB9 (5 mg/kg in 0.9% NaCl) 1 week after leukemia injection and for the duration of the experiment. Assuming a 20 g body weight (BW) and a 2 ml total blood volume per mouse—as well as an even distribution of the drug-systemic concentration of SB9 should be approximately 50 μg/ml. Based on the MW of SB9 (557.09), the final concentration—at equal distribution—in blood should be 8.97521e-05 M (≈90 μM).
# as §3
# All leukemia models were introduced by intravenous (i.v.) injection and transplanted into non-irradiated secondary recipient experimental animals. BALB/c mice were used for the WEHI-3B leukemia model (0.5×10^6/cells/mouse) and C57BL/6J mice for MLL/AF9-dsRed (0.2×10^6/cells/mouse). Leukemia progression was assessed by fluorescence (MLL/AF9 dsRed) using the IVIS-Spectrum Optical Imaging System (Caliper, Perkin Elmer). Mice were shaved to reduce light attenuation.
# [5] = system: serotonin-HTR1B signaling; assay: Gene expression in bone of treated mice (targets of serotonin-HTR1B signaling); type: in vivo, mouse; conditions: for expression of Cyclins D1, D2 and E1 in bone: treated versus vehicle-treated mice
# Description: as §2
# murine HTR1B receptor = molecular target: T4, murine HTR1B receptor (Mus musculus, UniProt P28334); assay: [3H]-Kyn binding to Htr1b-overexpressing HEK293T membranes with increasing SB9
# T4 construct: The full-length murine or human serotonin receptor 1b (Htr1b); Myc-DDK; host or cells: HEK293T (transient, Lipofectamine LTX); isolated membranes
# T4 sequence (P28334 whole entry): as the sequence (P28334 whole entry) above
# Description: as §1
# MLL/AF9 cells = assay: Transplant of Ido1-edited MLL/AF9 cells into WT non-irradiated recipients; type: in vivo, mouse; conditions: for disease progression: exon-3-edited MLL/AF9 cells versus Cas9-only
# IDO1 = assay: CRISPR/Cas9 Ido1 editing of primary murine MLL/AF9 cells; type: cell-based, mouse; conditions: for deletion efficiency: Ido1 exon 3, MLL/AF9 cells
# Description: The chemically modified sgRNAs targeting IDO1 were obtained and designed with at least 3 mismatches to decrease possible off target effects with the Synthego CRISPR design tool or the CRISPOR. […] In addition, lack of random effects due to TP53 activation, was shown by p16 and p21 mRNA level assessment in Cas9-only controls as well as in all the sgRNAs used. For 10^6 cells, 3 μg of TrueCut Cas9 protein V2 (Invitrogen) and 1.5 μg sgRNA were mixed in either SE (immortalized cell lines WEHI-3B and OCI-AML3) or P3 (primary mouse MLL/AF9 or patient-derived AML cells) buffer (Lonza, Amaxa X-Nucleofector Kit) and incubated 10 mins. Cells were then resuspended in their respective nucleofection buffer, mixed with the Cas9/sgRNA RNP complex or the Cas9 only as control, and electroporated with the Lonza 4D-Nucleofector (program DZ100, CM137 or DI100). After electroporation, cells were cultured in their respective media at 37° C. until sequencing analysis and/or injection. The editing efficiency data, indel contribution and Sanger sequence analyses were performed with the Synthego Performance Analysis, ICE Analysis. 2019. v2.0. (Synthego).
molecule,measurement,setting,value
"NCCc1c[nH]c2ccc(O)cc12 [5-HT, 5-hydroxytryptamine]",IC50,mouse HTR1B,0.0811 µM
same,Log IC50,mouse HTR1B,−7.091 M
same,Saa3 expression in mouse osteoblasts,HTR1B,no effect
"Nc1ccn([C@@H]2O[C@H](CO)[C@@H](O)[C@@H]2O)c(=O)n1 [Ara-C, cytosine arabinoside]",leukemic burden in BM,[1],modest decrease in overall leukemic burden
same,leukemic burden in spleen,[1],more sustained in the spleen than in BM
"Nc1ccccc1C(=O)CC(N)C(=O)O (stereo not drawn) [Kyn, kynurenine]",mode of action on Gi/o-mediated cAMP production through HTR1B,5-HT1B receptor,partial agonist
same,EC50,"5-HT1B receptor; cAMP Gi agonist, human HTR1B",0.772 µM
same,Log EC50,"5-HT1B receptor; log value, cAMP Gi agonist, human HTR1B",−6.113 M
same,AML burden in BM and SP,[2],increased
same,proliferative capacity of the leukemic blasts,[2],increases
same,serum SAA3,[2],increases
same,IC50,mouse HTR1B,54.1 µM
same,Log IC50,mouse HTR1B,−4.267 M
same,Ki,human HTR1B [3],17.3 µM
same,Log Ki,human HTR1B [3]; log value,−4.762 M
same,IC50,human HTR1B [4],24.4 µM
same,Log IC50,human HTR1B [4]; log value,−4.612 M
same,Saa3 expression in Htr1b-/- primary osteoblasts,HTR1B,failed to upregulate
same,Saa3 expression in mouse osteoblasts,HTR1B,potently upregulated
"Cc1nc(-c2ccc(-c3ccc(C(=O)N4CCc5cc6c(cc54)C4(CCN(C)CC4)CO6)cc3)c(C)c2)no1 [SB224289, 1′-methyl-5-[[2′-methyl-4“-(5-methyl-1,2,4-oxadiazol-3-yl)biphenyl-4-yl]carbonyl]-2,3,6,7-tetrahydro-spiro[furo[2,3-f]indole-3,4-”piperidine]]",survival,MLL/AF9 AML cells; SB9 5 mg/kg i.p. daily versus vehicle,significant increase in survival
same,expression of Col1a1 in bone,[5]; control osteoblast-specific gene,not affected
same,"expression of Cyclins D1, D2 and E1 in bone",[5],upregulated
same,IC50,mouse HTR1B,1.27 µM
same,Log IC50,mouse HTR1B,−5.896 M
same,effect on Kyn binding to the murine HTR1B receptor,"murine HTR1B receptor; at ~90 μM, concentration equal to the one administered in vivo",no effect
same,IC50,"murine HTR1B receptor; competition of [3H]-Kyn (50 μM), mouse HTR1B",7720 µM
"sgRNA #196: mouse sgRNA targeting Ido1 exon 3: CUGCCCACACUGAGCACGGA CGG (guide CUGCCCACACUGAGCACGGACGG; listed as RNA, chemistry not fully specified)",disease progression,MLL/AF9 cells,significantly attenuated
same,deletion efficiency,IDO1,~40%
sgRNA #203: mouse sgRNA targeting Ido1 exon 3: CAGUCCGUCCGUGCUCAGUG TGG (guide CAGUCCGUCCGUGCUCAGUGTGG; modified_base 21 OTHER; thymine),disease progression,MLL/AF9 cells,significantly attenuated
same,deletion efficiency,IDO1,~40%
"sgRNA #610: mouse sgRNA targeting Ido1 exon 4: UAGGGAACAGCAAUAUUGCG GGG (guide UAGGGAACAGCAAUAUUGCGGGG; listed as RNA, chemistry not fully specified)",mice with complete protection against leukemia progression that survived,MLL/AF9 cells; exon-4-edited MLL/AF9 cells,36%
same,survival,MLL/AF9 cells; exon-4-edited MLL/AF9 cells versus Cas9-only,significant increase in survival
same,MLL/AF9 cells efficiently targeted,IDO1; Ido1 exon 4,~70%
same,loss of expression of Ido1 at the mRNA level,"IDO1; Ido1 exon 4, MLL/AF9 cells",70%
B1,"leukemia growth, disease progression and lifespan",MLL/AF9 AML cells; PTH 80 μg/kg/day i.p. versus vehicle,failed to curtail leukemia growth
same,"expression of Cyclins D1, D2 and E1 in bone",[5],did not change
